Values after ≈ are worked out from the molar mass of the structure shown.
Tests used:
Type in all cases: functional
Candida albicans = assay: Antifungal activity against Candida albicans after 24 hrs by NCCLS protocol based method
Candida tropicalis = assay: Antifungal activity against Candida tropicalis after 24 hrs by NCCLS protocol based method
Cryptococcus neoformans = assay: Antifungal activity against Cryptococcus neoformans after 72 hrs by NCCLS protocol based method
Trichophyton rubrum = assay: Antifungal activity against Trichophyton rubrum after 7 days by NCCLS protocol based method; details: 168 h
Candida parapsilosis = assay: Antifungal activity against Candida parapsilosis after 24 hrs by NCCLS protocol based method; details: Lodderomyces parapsilosis
Fonsecaea compacta = assay: Antifungal activity against Fonsecaea compacta after 24 hrs by NCCLS protocol based method
Nannizzia gypsea = assay: Antifungal activity against Microsporum gypseum after 7 days by NCCLS protocol based method; details: 168 h

Structure (SMILES)	MIC80 (Candida albicans) [µg/mL]	MIC80 (Candida tropicalis) [µg/mL]	MIC80 (Cryptococcus neoformans) [µg/mL]	MIC80 (Trichophyton rubrum) [µg/mL]	MIC80 (Candida parapsilosis) [µg/mL]	MIC80 (Fonsecaea compacta) [µg/mL]	MIC (Candida albicans) [ng/mL]	MIC (Candida tropicalis) [ng/mL]	MIC (Cryptococcus neoformans) [ng/mL]	MIC (Trichophyton rubrum) [ng/mL]	MIC (Nannizzia gypsea) [ng/mL]
Cc1ccc(C(=O)OC2CCN(CC(O)(Cn3cncn3)c3ccc(F)cc3F)CC2)c(C)c1 (stereo not drawn)	0.0039 to 0.0625 (≈ 8.29 to 133 nM)	0.0039 to 0.0625 (≈ 8.29 to 133 nM)	0.0039 to 0.0625 (≈ 8.29 to 133 nM)	0.0039 to 0.0625 (≈ 8.29 to 133 nM)	0.0039 to 0.0625 (≈ 8.29 to 133 nM)	0.0039 to 0.0625 (≈ 8.29 to 133 nM)	–	–	–	–	–
COc1ccccc1C(=O)OC1CCN(CC(O)(Cn2cncn2)c2ccc(F)cc2F)CC1 (stereo not drawn)	0.0039 to 0.0625 (≈ 8.25 to 132 nM)	0.0039 to 0.0625 (≈ 8.25 to 132 nM)	0.0039 to 0.0625 (≈ 8.25 to 132 nM)	0.0039 to 0.0625 (≈ 8.25 to 132 nM)	0.0039 to 0.0625 (≈ 8.25 to 132 nM)	0.0039 to 0.0625 (≈ 8.25 to 132 nM)	–	–	–	–	–
O=C(OC1CCN(CC(O)(Cn2cncn2)c2ccc(F)cc2F)CC1)c1ccccc1Cl (stereo not drawn)	0.0039 to 0.0625 (≈ 8.18 to 131 nM)	0.0039 to 0.0625 (≈ 8.18 to 131 nM)	0.0039 to 0.0625 (≈ 8.18 to 131 nM)	0.0039 to 0.0625 (≈ 8.18 to 131 nM)	0.0039 to 0.0625 (≈ 8.18 to 131 nM)	0.0039 to 0.0625 (≈ 8.18 to 131 nM)	–	–	–	–	–
Cc1ccc(C(=O)OC2CCN(CC(O)(Cn3cncn3)c3ccc(F)cc3F)CC2)cc1 (stereo not drawn)	0.0039 to 0.0625 (≈ 8.54 to 137 nM)	0.0039 to 0.0625 (≈ 8.54 to 137 nM)	0.0039 to 0.0625 (≈ 8.54 to 137 nM)	0.0039 to 0.0625 (≈ 8.54 to 137 nM)	0.0039 to 0.0625 (≈ 8.54 to 137 nM)	0.0039 to 0.0625 (≈ 8.54 to 137 nM)	–	–	–	–	–
CC(C)(C)c1ccc(C(=O)OC2CCN(CC(O)(Cn3cncn3)c3ccc(F)cc3F)CC2)cc1 (stereo not drawn)	0.0039 to 0.0625 (≈ 7.82 to 125 nM)	0.0039 to 0.0625 (≈ 7.82 to 125 nM)	0.0039 to 0.0625 (≈ 7.82 to 125 nM)	0.0039 to 0.0625 (≈ 7.82 to 125 nM)	0.0039 to 0.0625 (≈ 7.82 to 125 nM)	0.0039 to 0.0625 (≈ 7.82 to 125 nM)	–	–	–	–	–
CN(CCCOc1ccccc1[N+](=O)[O-])CC(O)(Cn1cncn1)c1ccc(F)cc1F (stereo not drawn)	–	–	–	–	–	–	1 to 16 (≈ 2.23 to 35.8 nM)	1 to 16 (≈ 2.23 to 35.8 nM)	1 to 16 (≈ 2.23 to 35.8 nM)	1 to 16 (≈ 2.23 to 35.8 nM)	1 to 16 (≈ 2.23 to 35.8 nM)
O=C(OC1CCN(CC(O)(Cn2cncn2)c2ccc(F)cc2F)CC1)c1cccc(C(F)(F)F)c1 (stereo not drawn)	0.0039 to 0.0625 (≈ 7.64 to 122 nM)	0.0039 to 0.0625 (≈ 7.64 to 122 nM)	0.0039 to 0.0625 (≈ 7.64 to 122 nM)	0.0039 to 0.0625 (≈ 7.64 to 122 nM)	0.0039 to 0.0625 (≈ 7.64 to 122 nM)	0.0039 to 0.0625 (≈ 7.64 to 122 nM)	–	–	–	–	–
O=C(OC1CCN(CC(O)(Cn2cncn2)c2ccc(F)cc2F)CC1)c1ccccc1[N+](=O)[O-] (stereo not drawn)	0.0039 to 0.0625 (≈ 8 to 128 nM)	0.0039 to 0.0625 (≈ 8 to 128 nM)	0.0039 to 0.0625 (≈ 8 to 128 nM)	0.0039 to 0.0625 (≈ 8 to 128 nM)	0.0039 to 0.0625 (≈ 8 to 128 nM)	0.0039 to 0.0625 (≈ 8 to 128 nM)	–	–	–	–	–
O=C(OC1CCN(CC(O)(Cn2cncn2)c2ccc(F)cc2F)CC1)c1ccccc1F (stereo not drawn)	0.0039 to 0.0625 (≈ 8.47 to 136 nM)	0.0039 to 0.0625 (≈ 8.47 to 136 nM)	0.0039 to 0.0625 (≈ 8.47 to 136 nM)	0.0039 to 0.0625 (≈ 8.47 to 136 nM)	0.0039 to 0.0625 (≈ 8.47 to 136 nM)	0.0039 to 0.0625 (≈ 8.47 to 136 nM)	–	–	–	–	–
O=C(OC1CCN(CC(O)(Cn2cncn2)c2ccc(F)cc2F)CC1)c1ccc(Cl)cc1Cl (stereo not drawn)	0.0039 to 0.0625 (≈ 7.63 to 122 nM)	0.0039 to 0.0625 (≈ 7.63 to 122 nM)	0.0039 to 0.0625 (≈ 7.63 to 122 nM)	0.0039 to 0.0625 (≈ 7.63 to 122 nM)	0.0039 to 0.0625 (≈ 7.63 to 122 nM)	0.0039 to 0.0625 (≈ 7.63 to 122 nM)	–	–	–	–	–
CCC(C)n1ncn(-c2ccc(N3CCN(c4ccc(OCC5COC(Cn6cncn6)(c6ccc(Cl)cc6Cl)O5)cc4)CC3)cc2)c1=O (stereo not drawn) [ITRACONAZOLE]	–	–	–	–	–	–	62.5 (≈ 88.6 nM)	62.5 (≈ 88.6 nM)	62.5 (≈ 88.6 nM)	62.5 (≈ 88.6 nM)	62.5 (≈ 88.6 nM)
Cc1ccc(C(=O)OC2CCN(CC(O)(Cn3cncn3)c3ccc(F)cc3F)CC2)cc1C (stereo not drawn)	0.0039 to 0.0625 (≈ 8.29 to 133 nM)	0.0039 to 0.0625 (≈ 8.29 to 133 nM)	0.0039 to 0.0625 (≈ 8.29 to 133 nM)	0.0039 to 0.0625 (≈ 8.29 to 133 nM)	0.0039 to 0.0625 (≈ 8.29 to 133 nM)	0.0039 to 0.0625 (≈ 8.29 to 133 nM)	–	–	–	–	–
Cc1cccc(OCCCN(C)CC(O)(Cn2cncn2)c2ccc(F)cc2F)c1 (stereo not drawn)	–	–	–	–	–	–	1 (≈ 2.4 nM)	1 (≈ 2.4 nM)	1 (≈ 2.4 nM)	1 (≈ 2.4 nM)	1 (≈ 2.4 nM)
O=C(OC1CCN(CC(O)(Cn2cncn2)c2ccc(F)cc2F)CC1)c1cccc(F)c1 (stereo not drawn)	0.0039 to 0.0625 (≈ 8.47 to 136 nM)	0.0039 to 0.0625 (≈ 8.47 to 136 nM)	0.0039 to 0.0625 (≈ 8.47 to 136 nM)	0.0039 to 0.0625 (≈ 8.47 to 136 nM)	0.0039 to 0.0625 (≈ 8.47 to 136 nM)	0.0039 to 0.0625 (≈ 8.47 to 136 nM)	–	–	–	–	–
O=C(OC1CCN(CC(O)(Cn2cncn2)c2ccc(F)cc2F)CC1)c1ccccc1 (stereo not drawn)	0.0039 to 0.0625 (≈ 8.81 to 141 nM)	0.0039 to 0.0625 (≈ 8.81 to 141 nM)	0.0039 to 0.0625 (≈ 8.81 to 141 nM)	0.0039 to 0.0625 (≈ 8.81 to 141 nM)	0.0039 to 0.0625 (≈ 8.81 to 141 nM)	0.0039 to 0.0625 (≈ 8.81 to 141 nM)	–	–	–	–	–
O=C(OC1CCN(CC(O)(Cn2cncn2)c2ccc(F)cc2F)CC1)c1ccc(Cl)cc1 (stereo not drawn)	0.0039 to 0.0625 (≈ 8.18 to 131 nM)	0.0039 to 0.0625 (≈ 8.18 to 131 nM)	0.0039 to 0.0625 (≈ 8.18 to 131 nM)	0.0039 to 0.0625 (≈ 8.18 to 131 nM)	0.0039 to 0.0625 (≈ 8.18 to 131 nM)	0.0039 to 0.0625 (≈ 8.18 to 131 nM)	–	–	–	–	–
COc1cccc(C(=O)OC2CCN(CC(O)(Cn3cncn3)c3ccc(F)cc3F)CC2)c1 (stereo not drawn)	0.0039 to 0.0625 (≈ 8.25 to 132 nM)	0.0039 to 0.0625 (≈ 8.25 to 132 nM)	0.0039 to 0.0625 (≈ 8.25 to 132 nM)	0.0039 to 0.0625 (≈ 8.25 to 132 nM)	0.0039 to 0.0625 (≈ 8.25 to 132 nM)	0.0039 to 0.0625 (≈ 8.25 to 132 nM)	–	–	–	–	–
Cc1ccc(OCCCN(C)CC(O)(Cn2cncn2)c2ccc(F)cc2F)cc1 (stereo not drawn)	–	–	–	–	–	–	1 (≈ 2.4 nM)	1 (≈ 2.4 nM)	1 (≈ 2.4 nM)	1 (≈ 2.4 nM)	1 (≈ 2.4 nM)
O=C(OC1CCN(CC(O)(Cn2cncn2)c2ccc(F)cc2F)CC1)c1ccc([N+](=O)[O-])cc1 (stereo not drawn)	0.0039 to 0.0625 (≈ 8 to 128 nM)	0.0039 to 0.0625 (≈ 8 to 128 nM)	0.0039 to 0.0625 (≈ 8 to 128 nM)	0.0039 to 0.0625 (≈ 8 to 128 nM)	0.0039 to 0.0625 (≈ 8 to 128 nM)	0.0039 to 0.0625 (≈ 8 to 128 nM)	–	–	–	–	–
CCCCc1ccc(C(=O)OC2CCN(CC(O)(Cn3cncn3)c3ccc(F)cc3F)CC2)cc1 (stereo not drawn)	0.0039 to 0.0625 (≈ 7.82 to 125 nM)	0.0039 to 0.0625 (≈ 7.82 to 125 nM)	0.0039 to 0.0625 (≈ 7.82 to 125 nM)	0.0039 to 0.0625 (≈ 7.82 to 125 nM)	0.0039 to 0.0625 (≈ 7.82 to 125 nM)	0.0039 to 0.0625 (≈ 7.82 to 125 nM)	–	–	–	–	–
O=C(OC1CCN(CC(O)(Cn2cncn2)c2ccc(F)cc2F)CC1)c1cccc(Cl)c1 (stereo not drawn)	0.0039 to 0.0625 (≈ 8.18 to 131 nM)	0.0039 to 0.0625 (≈ 8.18 to 131 nM)	0.0039 to 0.0625 (≈ 8.18 to 131 nM)	0.0039 to 0.0625 (≈ 8.18 to 131 nM)	0.0039 to 0.0625 (≈ 8.18 to 131 nM)	0.0039 to 0.0625 (≈ 8.18 to 131 nM)	–	–	–	–	–
CCc1ccc(C(=O)OC2CCN(CC(O)(Cn3cncn3)c3ccc(F)cc3F)CC2)cc1 (stereo not drawn)	0.0039 to 0.0625 (≈ 8.29 to 133 nM)	0.0039 to 0.0625 (≈ 8.29 to 133 nM)	0.0039 to 0.0625 (≈ 8.29 to 133 nM)	0.0039 to 0.0625 (≈ 8.29 to 133 nM)	0.0039 to 0.0625 (≈ 8.29 to 133 nM)	0.0039 to 0.0625 (≈ 8.29 to 133 nM)	–	–	–	–	–
